# Assay results taken from patent US10138225B2 (Achillion Pharmaceuticals, Inc., priority 2015, dated 2018).
# Target: T1, Human Factor D (Homo sapiens, UniProt P00746)
# T1 construct: purified from human serum; purchased Complement Technology, Inc; host or cells: human serum (natural protein, not recombinant)
# Assay: Human Factor D Assay
# Assay type: biochemical
# Settings: Table 1; Factor D 80 nM, substrate Z-L-Lys-SBzl; read-out: IC50
# Procedure: Human Factor D (purified from human serum, Complement Technology, Inc.) at 80 nM final concentration is incubated with test compound at various concentrations for 5 minutes at room temperature in 50 mM Tris, 1M NaCl, pH 7.5. A synthetic substrate Z-L-Lys-SBzl and DTNB (Ellman's reagent) are added to final concentrations of 100 μM each. Absorbance at 405 nm (A405) is recorded at 30 second intervals for 30 minutes using a microplate spectrophotometer. IC50 values are calculated by nonlinear regression of complement Factor D reaction rates as a function of test compound concentration.
# T1 sequence (P00746 26-253): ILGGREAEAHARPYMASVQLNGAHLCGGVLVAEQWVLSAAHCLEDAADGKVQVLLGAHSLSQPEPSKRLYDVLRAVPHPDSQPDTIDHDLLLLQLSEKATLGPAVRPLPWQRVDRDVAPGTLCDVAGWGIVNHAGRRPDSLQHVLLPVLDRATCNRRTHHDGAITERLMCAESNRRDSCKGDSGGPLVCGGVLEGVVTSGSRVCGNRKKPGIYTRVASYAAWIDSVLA
row,SMILES,IC50
1,"CC(=O)c1cn(CC(=O)N2C[C@H](F)C[C@H]2C(=O)NCc2cccc(Cl)c2F)c2cc(C(=O)NS(=O)(=O)C3CC3)ccc12 [Compound 48, 3-acetyl-1-(2-((2S,4R)-2-(3-chloro-2-fluorobenzylcarbamoyl)-4-fluoropyrrolidin-1-yl)-2-oxoethyl)-N-(cyclopropylsulfonyl)-1H-indole-6-carboxamide]",< 1000 nM
2,"CC(=O)c1cn(CC(=O)N2C[C@H](F)C[C@H]2C(=O)NCc2cccc(Cl)c2F)c2ccc(C(=O)NC3CC3)cc12 [Compound 41, 3-acetyl-1-(2-((2S,4R)-2-(3-chloro-2-fluorobenzylcarbamoyl)-4-fluoropyrrolidin-1-yl)-2-oxoethyl)-N-cyclopropyl-1H-indole-5-carboxamide]",< 1000 nM
3,"CC(=O)c1cn(CC(=O)N2C[C@H](F)C[C@H]2C(=O)Nc2cccc(-c3ccccc3Cl)c2F)c2ccc(NC(=O)CC(F)(F)F)cc12 [Compound 36, (2S,4R)-1-(2-(3-acetyl-5-(3,3,3-trifluoropropanamido)-1H-indol-1-yl)acetyl)-N-(2′-chloro-2-fluorobiphenyl-3-yl)-4-fluoropyrrolidine-2-carboxamide]",< 1000 nM
4,"NC(=O)c1nn(CC(=O)N2[C@@H]3C[C@@H]3C[C@H]2C(=O)Nc2cccc(OC(F)(F)F)c2F)c2ccc(NC(=O)N3CCCC(F)(F)C3)cc12 [Compound 27, 5-(3,3-difluoropiperidine-1-carboxamido)-1-(2-((1R,3S,5R)-3-(2-fluoro-3-(trifluoromethoxy)phenylcarbamoyl)-2-azabicylco[3.1.0]hexan-2-yl)-2-oxoethyl)-1H-indazole-3-carboxamide]",< 1000 nM
5,"CC(=O)c1cn(CC(=O)N2C[C@H](F)C[C@H]2C(=O)NCc2cccc(Cl)c2F)c2ccc(C(=O)N3CC4CCC3C4)cc12 (stereo partly drawn) [Compound 39, (2S,4R)-1-(2-(3-acetyl-5-(2-azabicyclo[2.2.1]heptane-2-carbonyl)-1H-indol-1-yl)acetyl)-N-(3-chloro-2-fluorobenzyl)-4-fluoropyrrolidine-2-carboxamide]",< 1000 nM
6,NC(=O)c1nn(CC(=O)N2C[C@H](F)C[C@H]2C(=O)Nc2cccc(OC(F)(F)F)c2F)c2ccc(NC(=O)N3CCCC(F)(F)C3)cc12 [Compound 26],< 1000 nM
7,"CC(=O)c1cn(CC(=O)N2C[C@H](F)C[C@H]2C(=O)NCc2cccc(Cl)c2F)c2cc(C(=O)NS(=O)(=O)c3ccccc3)ccc12 [Compound 53, 3-acetyl-1-(2-((2S,4R)-2-(3-chloro-2-fluorobenzylcarbamoyl)-4-fluoropyrrolidin-1-yl)-2-oxoethyl)-N-(phenylsulfonyl)-1H-indole-6-carboxamide]",< 1000 nM
8,"NC(=O)c1nn(CC(=O)N2C[C@H](F)C[C@H]2C(=O)Nc2cccc(-c3ccccc3Cl)c2F)c2ccc(NC(=O)N3CCC(F)(F)CC3)cc12 [Compound 31, 1-(2-((2S,4R)-2-(2′-chloro-2-fluorobiphenyl-3-ylcarbamoyl)-4-fluoropyrrolidin-1-yl)-2-oxoethyl)-5-(4,4-difluoropiperidine-1-carboxamido)-1H-indazole-3-carboxamide]",< 1000 nM
9,"CC(=O)c1cn(CC(=O)N2C[C@H](F)C[C@H]2C(=O)NCc2cccc(Cl)c2F)c2ccc(NC(=O)NCc3ccon3)cc12 [Compound 7, (2S,4R)-1-(2-(3-acetyl-5-(3-(isoxazol-3-ylmethyl)ureido)-1H-indol-1-yl)acetyl)-N-(3-chloro-2-fluorobenzyl)-4-fluoropyrrolidine-2-carboxamide]",< 1000 nM
10,"CC(=O)c1cn(CC(=O)N2C[C@H](F)C[C@H]2C(=O)NCc2cccc(Cl)c2F)c2cc(C(=O)N[C@H]3CCN(C(C)=O)C3)ccc12 [Compound 46, 3-acetyl-N-((S)-1-acetylpyrrolidin-3-yl)-1-(2-((2S,4R)-2-(3-chloro-2-fluorobenzylcarbamoyl)-4-fluoropyrrolidin-1-yl)-2-oxoethyl)-1H-indole-6-carboxamide]",< 1000 nM
11,"CC(=O)c1cn(CC(=O)N2C[C@H](F)C[C@H]2C(=O)Nc2cccc(-c3ccccc3Cl)c2F)c2ccc(NC(=O)N3CCCC(F)(F)C3)cc12 [Compound 18, N-(3-acetyl-1-(2-((2S,4R)-2-(2′-chloro-2-fluorobiphenyl-3-ylcarbamoyl)-4-fluoropyrrolidin-1-yl)-2-oxoethyl)-1H-indol-5-yl)-3,3-difluoropiperidine-1-carboxamide]",< 1000 nM
12,"CC(=O)c1cn(CC(=O)N2C[C@H](F)C[C@H]2C(=O)NCc2cccc(Cl)c2F)c2ccc(NC(=O)OC3CC3)cc12 [Compound 14, cyclopropyl 3-acetyl-1-(2-((2S,4R)-2-(3-chloro-2-fluorobenzylcarbamoyl)-4-fluoropyrrolidin-1-yl)-2-oxoethyl)-1H-indol-5-ylcarbamate]",< 1000 nM
13,"CC(=O)c1cn(CC(=O)N2[C@@H]3C[C@@H]3C[C@H]2C(=O)Nc2cccc(OC(F)(F)F)c2F)c2ccc(NC(=O)NC3CC3)cc12 [Compound 11, (1R,3S,5R)-2-(2-(3-acetyl-5-(3-cyclopropylureido)-1H-indol-1-yl)acetyl)-N-(2-fluoro-3-(trifluoromethoxy)phenyl)-2-azabicyclo[3.1.0] hexane-3-carboxamide]",< 1000 nM
14,"CC(=O)c1cn(CC(=O)N2C[C@H](F)C[C@H]2C(=O)NCc2cccc(Cl)c2F)c2ccc(NC(=O)NCc3ncccn3)cc12 [Compound 8, (2S,4R)-1-(2-(3-acetyl-5-(3-(pyrimidin-2-ylmethyl)ureido)-1H-indol-1-yl)acetyl)-N-(3-chloro-2-fluorobenzyl)-4-fluoropyrrolidine-2-carboxamide]",< 1000 nM
15,"CC(=O)c1cn(CC(=O)N2C[C@H](F)C[C@H]2C(=O)NCc2cccc(Cl)c2F)c2ccc(NC(=O)NCc3nn[nH]n3)cc12 [Compound 2, (2S,4R)-1-(2-(5-(3-((2H-tetrazol-5-yl)methyl)ureido)-3-acetyl-1H-indol-1-yl)acetyl)-N-(3-chloro-2-fluorobenzyl)-4-fluoropyrrolidine-2-carboxamide]",< 1000 nM
16,NC(=O)c1nn(CC(=O)N2C[C@H](F)C[C@H]2C(=O)Nc2cccc(-c3ccccc3Cl)c2F)c2cc(C(=O)NS(=O)(=O)C3CC3)ccc12 [Compound 54],< 1000 nM
17,"CC(=O)c1cn(CC(=O)N2C[C@H](F)C[C@H]2C(=O)NCc2cccc(Cl)c2F)c2ccc(NC(=O)N3Cc4cncnc4C3)cc12 [Compound 22, N-(3-acetyl-1-(2-((2S,4R)-2-(3-chloro-2-fluorobenzylcarbamoyl)-4-fluoropyrrolidin-1-yl)-2-oxoethyl)-1H-indol-5-yl)-5H-pyrrolo[3,4-d]pyrimidine-6(7H)-carboxamide]",< 1000 nM
18,"CC(=O)c1cn(CC(=O)N2C[C@H](F)C[C@H]2C(=O)Nc2cccc(OC(F)(F)F)c2F)c2ccc(NC(=O)NC3CC3)cc12 [Compound 10, (2S,4R)-1-(2-(3-acetyl-5-(3-cyclopropylureido)-1H-indol-1-yl)acetyl)-4-fluoro-N-(2-fluoro-3-(trifluoromethoxy)phenyl)pyrrolidine-2-carboxamide]",< 1000 nM

# Same assay, conditions: Table 2; Factor D 80 nM, substrate Z-L-Lys-SBzl; read-out: IC50
row,SMILES,IC50
1,"NC(=O)c1nn(CC(=O)N2C[C@H](F)C[C@H]2C(=O)Nc2cccc(-c3ccccc3Cl)c2F)c2cc(C(=O)NC3CCCC3)sc12 [Compound 61, 1-(2-((2S,4R)-2-(2′-chloro-2-fluorobiphenyl-3-ylcarbamoyl)-4-fluoropyrrolidin-1-yl)-2-oxoethyl)-N5-cyclopentyl-1H-thieno[3,2-c]pyrazole-3,5-dicarboxamide]",< 1000 nM
2,"CC(C)(C)C(=O)Nc1nc2c(s1)c(C(N)=O)nn2CC(=O)N1C[C@H](F)C[C@H]1C(=O)Nc1cccc(-c2ccccc2Cl)c1F [Compound 55, 1-(2-((2S,4R)-2-(2′-chloro-2-fluorobiphenyl-3-ylcarbamoyl)-4-fluoropyrrolidin-1-yl)-2-oxoethyl)-5-pivalamido-1H-pyrazolo[3,4-d]thiazole-3-carboxamide]",< 1000 nM
3,"NC(=O)c1nn(CC(=O)N2C[C@H](F)C[C@H]2C(=O)Nc2cccc(-c3ccccc3Cl)c2F)c2cc(C(=O)N3CCOCC3)sc12 [Compound 59, 1-(2-((2S,4R)-2-(2′-chloro-2-fluorobiphenyl-3-ylcarbamoyl)-4-fluoropyrrolidin-1-yl)-2-oxoethyl)-5-(morpholine-4-carbonyl)-1H-thieno[3,2-c]pyrazole-3-carboxamide]",< 1000 nM

# Same assay, conditions: Table 3; factor D inhibition assay; read-out: IC50 (Stars)
row,SMILES,IC50
1,"CC(=O)c1cn(CC(=O)N2CC[C@H]2C(=O)Nc2cccc(C)n2)c2ccc(NC(=O)N3CCCC(F)(F)C3)cc12 [Compound 205, (S)-N-(3-acetyl-1-(2-(2-((6-methylpyridin-2-yl)-carbamoyl)-azetidin-1-yl)-2-oxoethyl)-1H-indol-5-yl)-3,3-difluoropiperidine-1-carboxamide]",> 10000 nM
2,"Cc1cccc(NC(=O)[C@@H]2[C@H]3CC[C@H](C3)N2C(=O)Cn2cc(C(N)=O)c3cc(C(=O)N4CCCC(F)(F)C4)ccc32)n1 [Compound 206, 5-(3,3-difluoropiperidine-1-carbonyl)-1-(2-((1R,3S,4S)-3-((6-methyl-pyridin-2-yl)-carbamoyl)-2-aza-bicyclo[2.2.1]heptan-2-yl)-2-oxoethyl)-1H-indole-3-carboxamide]",1000 to 10000 nM
3,"CC(=O)c1nn(CC(=O)N2[C@H](C(=O)Nc3cccc(Br)n3)C[C@@]3(C)C[C@@H]23)c2cc(C(=O)NS(=O)(=O)C3CC3)ccc12 [Compound 234, 3-acetyl-1-(2-((1R,3S,5R)-3-((6-bromopyridin-2-yl)carbamoyl)-5-methyl-2-azabicyclo [3.1.0]hexan-2-yl)-2-oxoethyl)-N-(cyclopropylsulfonyl)-1H-indazole-6-carboxamide]",1000 to 10000 nM
4,CC(=O)c1nn(CC(=O)N2C[C@H](F)C[C@H]2C(=O)Nc2cccc(Br)n2)c2ccc(NC(=O)C3CCCC3(F)F)cc12 (stereo partly shown) [Compound 230],< 1000 nM
